Experimental data taken from patent US20140350029A1 (DAINIPPON SUMITOMO PHARMA CO., LTD., priority 2011, published 2014).
Entries after “also recorded” stand apart in the source; their conditions may differ.

Key:
Dopamine D4 receptor = target: T1, Dopamine D4 receptor (Homo sapiens, UniProt P21917); experiment: In vitro receptor binding, dopamine D4; conditions: cloned cells expressing human receptors; read-out: Binding Affinities (Ki; nM) Dopamine D4
T1 sequence (P21917 1-419): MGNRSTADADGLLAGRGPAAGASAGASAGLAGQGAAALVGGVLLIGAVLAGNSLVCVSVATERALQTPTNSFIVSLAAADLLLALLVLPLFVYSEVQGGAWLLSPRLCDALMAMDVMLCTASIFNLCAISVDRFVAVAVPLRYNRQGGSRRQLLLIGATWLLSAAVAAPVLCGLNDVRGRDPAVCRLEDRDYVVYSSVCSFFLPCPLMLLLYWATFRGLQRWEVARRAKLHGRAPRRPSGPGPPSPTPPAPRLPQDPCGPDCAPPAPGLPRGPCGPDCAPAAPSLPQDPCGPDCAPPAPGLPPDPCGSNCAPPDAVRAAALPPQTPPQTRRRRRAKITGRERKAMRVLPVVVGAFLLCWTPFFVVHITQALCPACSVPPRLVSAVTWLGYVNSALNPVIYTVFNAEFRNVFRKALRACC

[1] = target: Norepinephrine α1 receptor; experiment: In vitro receptor binding, norepinephrine α1 (rat)
Histamine H1 receptor [2] = target: Histamine H1 receptor (Cavia porcellus, UniProt P31389); experiment: In vitro receptor binding, histamine H1 (guinea pig)
[3] = target: T2, serotonin 5-HT1A receptor (Homo sapiens, UniProt P08908); experiment: Functional assay, effect on receptor function; format: biochemical
T2 sequence (P08908 1-422): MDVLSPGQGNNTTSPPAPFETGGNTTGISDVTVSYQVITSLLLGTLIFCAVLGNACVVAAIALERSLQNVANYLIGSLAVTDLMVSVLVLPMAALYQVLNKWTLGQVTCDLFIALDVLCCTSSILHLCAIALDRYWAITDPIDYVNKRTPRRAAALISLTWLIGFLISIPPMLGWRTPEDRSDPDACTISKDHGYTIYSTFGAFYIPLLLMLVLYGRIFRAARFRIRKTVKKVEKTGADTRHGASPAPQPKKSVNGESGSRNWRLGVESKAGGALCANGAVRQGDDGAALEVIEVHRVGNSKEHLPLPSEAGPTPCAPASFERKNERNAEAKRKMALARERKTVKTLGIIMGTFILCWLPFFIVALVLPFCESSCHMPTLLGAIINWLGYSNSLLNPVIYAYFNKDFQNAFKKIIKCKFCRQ
Experimental: In vitro binding studies were carried out according to the procedures well-established in the art. Membranes from male Wistar rat brain tissues or cells expressing cloned human receptors were prepared under assay conditions summarized in Ishibashi, T. et al. (Journal of Pharmacology and Experimental Therapeutics (2010)). Functional assays were carried out to analyze the binding affinity and effect on receptor function for dopamine D1-D4 receptor subtypes, serotonin 5-HT1A, 5-HT2A, 5-HT2C, 5-HT6, 5-HT7, norepinephrine α1, α2A, α2C, histamine H1 receptors, and muscarinic M1 receptors.

[4] = tested on: patients with schizophrenia; experiment: Quality of Well-Being (QWB-SA), 6-week placebo-controlled study; format: in vivo, human; conditions: 80 mg and 160 mg lurasidone per day, 6 weeks
Experimental: Quality of Well-Being (QWB) was measured according to the procedures well-established in the art. The QWB was a self administered questionnaire (QWB-SA), where the combined score ranged from 0 to 1.0 (death to optimal functioning). A patient diagnosed with schizophrenia answered five sections assessing the presence/absence of 19 chronic symptoms or problems, physical symptoms, and mental health symptoms and behaviors as well as an assessment of a person's mobility, physical activity and social activity including completion of role expectations. […] In addition, the relationship between other indicators of therapy outcome, for example, cognitive composite scores, PANSS scores, Negative Symptom Assessment Scale scores (NSA), and Montgomery-Asberg Depression Rating Scale scores (MADRS), was evaluated in relation to quality of life, as assessed by the QWB-SA. […] In addition, partial correlations were found between improvement of QWB-SA and PANSS scores, QWB-SA and MADE scores, QWB-SA and NSA scores, and QWB-SA and cognitive composite scores.

[5] = Metabolic effects, 1-year lurasidone therapy; format: in vivo, human; conditions: 40-120 mg/day, 1-year study, patients with schizophrenia
Experimental: Changes in weight, total cholesterol, triglycerides, fasting glucose, and prolactin were measured and compared to baseline levels.

[6] = target: T2, serotonin 5-HT1A receptor; conditions: background statement; cited from earlier work
5-HT2A receptor = 5-HT2A receptor (Homo sapiens, UniProt P28223); conditions: background statement; cited from earlier work
5-HT7 receptor = 5-HT7 receptor (Homo sapiens, UniProt P34969); conditions: background statement; cited from earlier work
[7] = target: T3, noradrenaline α2C receptor (Homo sapiens, UniProt P18825); conditions: background statement; cited from earlier work
T3 sequence (P18825 1-462): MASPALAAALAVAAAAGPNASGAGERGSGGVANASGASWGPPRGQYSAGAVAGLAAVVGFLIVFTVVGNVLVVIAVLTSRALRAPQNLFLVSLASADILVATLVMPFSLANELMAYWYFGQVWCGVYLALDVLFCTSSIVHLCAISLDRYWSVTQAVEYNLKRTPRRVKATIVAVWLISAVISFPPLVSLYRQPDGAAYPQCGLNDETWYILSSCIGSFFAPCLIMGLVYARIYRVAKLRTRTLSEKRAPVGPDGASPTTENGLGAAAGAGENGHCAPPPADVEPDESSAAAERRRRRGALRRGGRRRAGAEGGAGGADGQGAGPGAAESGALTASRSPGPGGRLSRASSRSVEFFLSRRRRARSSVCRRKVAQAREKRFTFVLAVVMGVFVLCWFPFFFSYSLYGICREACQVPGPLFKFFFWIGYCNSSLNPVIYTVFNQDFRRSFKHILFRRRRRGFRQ

histamine H1 receptor [8] = target: histamine H1 receptor (Homo sapiens, UniProt P35367); conditions: background statement; cited from earlier work
Chain of histamine H1 receptor (P35367 whole entry): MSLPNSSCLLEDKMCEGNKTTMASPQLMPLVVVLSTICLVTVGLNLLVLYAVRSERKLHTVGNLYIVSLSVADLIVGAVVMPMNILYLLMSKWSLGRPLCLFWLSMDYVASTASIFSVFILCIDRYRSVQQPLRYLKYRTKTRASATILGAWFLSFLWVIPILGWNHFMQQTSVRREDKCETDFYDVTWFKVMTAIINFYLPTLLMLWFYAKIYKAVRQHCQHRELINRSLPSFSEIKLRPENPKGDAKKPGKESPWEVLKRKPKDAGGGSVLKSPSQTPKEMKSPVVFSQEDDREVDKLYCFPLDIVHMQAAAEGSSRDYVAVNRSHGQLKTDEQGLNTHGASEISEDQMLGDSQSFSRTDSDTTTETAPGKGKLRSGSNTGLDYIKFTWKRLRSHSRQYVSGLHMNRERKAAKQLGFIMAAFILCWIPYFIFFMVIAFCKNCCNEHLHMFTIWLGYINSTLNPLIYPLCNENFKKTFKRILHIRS

Chain of Histamine H1 receptor (P31389 whole entry): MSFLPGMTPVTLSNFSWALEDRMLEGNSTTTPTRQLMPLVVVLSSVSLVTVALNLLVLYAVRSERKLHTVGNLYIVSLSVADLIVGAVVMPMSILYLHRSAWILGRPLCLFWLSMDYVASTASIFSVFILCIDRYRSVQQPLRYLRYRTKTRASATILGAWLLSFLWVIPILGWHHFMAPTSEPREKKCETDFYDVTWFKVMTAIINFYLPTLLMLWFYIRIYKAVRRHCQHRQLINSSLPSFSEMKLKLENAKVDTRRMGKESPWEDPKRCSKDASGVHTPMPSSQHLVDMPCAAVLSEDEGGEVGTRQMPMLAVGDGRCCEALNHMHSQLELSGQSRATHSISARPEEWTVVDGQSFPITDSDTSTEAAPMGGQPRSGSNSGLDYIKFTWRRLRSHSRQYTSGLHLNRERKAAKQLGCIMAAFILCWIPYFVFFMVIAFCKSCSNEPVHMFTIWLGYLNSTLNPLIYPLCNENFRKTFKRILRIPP
Chain of 5-HT7 receptor (P34969 whole entry): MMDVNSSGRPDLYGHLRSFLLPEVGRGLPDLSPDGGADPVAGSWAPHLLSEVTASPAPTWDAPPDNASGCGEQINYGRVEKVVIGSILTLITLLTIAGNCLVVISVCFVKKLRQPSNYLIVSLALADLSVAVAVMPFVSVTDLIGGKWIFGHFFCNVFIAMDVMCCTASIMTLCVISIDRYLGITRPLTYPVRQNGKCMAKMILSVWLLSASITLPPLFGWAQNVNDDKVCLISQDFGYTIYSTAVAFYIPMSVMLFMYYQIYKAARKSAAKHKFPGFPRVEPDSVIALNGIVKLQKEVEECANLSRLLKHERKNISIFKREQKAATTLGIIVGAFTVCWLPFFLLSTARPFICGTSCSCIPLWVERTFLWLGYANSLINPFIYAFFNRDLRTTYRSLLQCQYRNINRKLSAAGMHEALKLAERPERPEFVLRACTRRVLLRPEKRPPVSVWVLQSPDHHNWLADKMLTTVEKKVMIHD
Chain of 5-HT2A receptor (P28223 whole entry): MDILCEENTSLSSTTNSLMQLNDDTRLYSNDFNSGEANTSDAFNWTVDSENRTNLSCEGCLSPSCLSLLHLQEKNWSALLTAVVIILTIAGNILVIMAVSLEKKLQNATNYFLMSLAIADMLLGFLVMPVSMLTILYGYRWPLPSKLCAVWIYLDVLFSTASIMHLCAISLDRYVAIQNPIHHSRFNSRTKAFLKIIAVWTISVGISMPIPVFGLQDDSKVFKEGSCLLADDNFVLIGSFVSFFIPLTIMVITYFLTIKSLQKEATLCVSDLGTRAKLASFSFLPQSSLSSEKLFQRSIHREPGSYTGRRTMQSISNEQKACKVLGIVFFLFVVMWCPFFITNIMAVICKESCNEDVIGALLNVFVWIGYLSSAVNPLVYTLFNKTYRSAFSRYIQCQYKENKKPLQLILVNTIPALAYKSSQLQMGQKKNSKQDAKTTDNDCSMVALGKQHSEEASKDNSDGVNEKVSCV

O=C1[C@@H]2[C@H]3CC[C@H](C3)[C@@H]2C(=O)N1C[C@@H]1CCCC[C@H]1CN1CCN(c2nsc3ccccc23)CC1 [Lurasidone]
Ki (Dopamine D4 receptor): 29.7 nM
Ki ([1]; rat, read-out: Binding Affinities (Ki; nM) Norepinephrine α1): 47.9 nM
binding affinity for α1 adrenoreceptor (in words) ([1]; summary of Table 2): low or negligible binding affinity
Ki (Histamine H1 receptor [2]; guinea pig, read-out: Binding Affinities (Ki; nM) Histamine H1): > 1000 nM
binding affinity for histamine H1 receptor (in words) (Histamine H1 receptor [2]; summary of Table 2): low or negligible binding affinity
effect on 5-HT1A receptor function [3]: partial agonist
QWB-SA score compared to placebo (endpoint ANCOVA) [4]: significant improvement
changes in mean weight, lipids, and prolactin from baseline [5]: no adverse changes
reported affinity for 5-HT1A receptor [6]: high affinity; also recorded: moderate affinity
reported affinity for 5-HT2A receptor (5-HT2A receptor): high affinity
reported affinity for 5-HT7 receptor (5-HT7 receptor): high affinity
reported affinity for noradrenaline α2C receptor [7]: high affinity
reported affinity for histamine H1 receptor (histamine H1 receptor [8]): minimal to no affinity
